Reference: ChEMBL document CHEMBL1201862, “PubChem BioAssay data set” (2004)
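Growth conditions: 96-well plates. Treatment: test compound, 48 hours, 5 concentrations. Analysis: linear interpolation between bracketing concentrations; unreached endpoints set to highest concentration. Abbreviation: GI50, concentration required for 50% inhibition of growth.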 Active and inactive are the calls of the source. Cut-off read from the data, not from the text of the source: active = GI50 up to about 1.1 µM and inactive = higher.

Experiments:
Experiment in all cases: inhibition of tumour cell growth, NCI panel, 48 h
SNB-78 = system: SNB-78
RXF 631 = system: RXF 631
M19-MEL = system: M19-MEL
XF498 = system: XF498
HOP-18 = system: HOP-18
DMS-114 = system: DMS-114
DLD-1 = system: DLD-1
KM-20L2 = system: KM-20L2

Measured: GI50

O=C(NCO)NCOCn1c(=O)n(CO)c(=O)n(CO)c1=O
inactive: SNB-78 28.4 µM | RXF 631 > 61.7 µM | M19-MEL 32.4 µM | XF498 23.2 µM | HOP-18 > 100 µM | DMS-114 34.4 µM | DLD-1 24.9 µM | KM-20L2 38.6 µM

CN(C)CC1CC/C(=C\c2ccc(Cl)cc2)C1=O (centres undefined)
inactive: SNB-78 16.3 µM | RXF 631 20.4 µM | M19-MEL 3.54 µM | XF498 7.66 µM | HOP-18 18.2 µM | DMS-114 7.52 µM | DLD-1 3.71 µM | KM-20L2 12.1 µM

BrC12C3C4C5C(C(C43)C13OCCO3)C52 (centres undefined)
inactive: SNB-78 > 100 µM | RXF 631 > 100 µM | M19-MEL > 100 µM | XF498 60.4 µM | HOP-18 8.55 µM | DMS-114 > 100 µM | DLD-1 > 100 µM | KM-20L2 > 100 µM
